Assays:
human SGLT1 = target: T1, human SGLT1 (Homo sapiens, UniProt P13866); assay: Inhibition test of sodium-dependent sugar uptake in CHO-k1 cells stably expressing human SGLT1; type: cell-based; conditions: for SGLT1 % inhibition at 100 nM: sugar uptake inhibition rate at 100 nM test compound vs control group; for IC50: CHO-k1 cells expressing human SGLT1, [14C]methyl α-D-glucopyranoside uptake, 37° C., 30 minutes
T1 construct: expressed in transfected cells; host or cells: CHO-k1
T1 sequence (P13866 1-664): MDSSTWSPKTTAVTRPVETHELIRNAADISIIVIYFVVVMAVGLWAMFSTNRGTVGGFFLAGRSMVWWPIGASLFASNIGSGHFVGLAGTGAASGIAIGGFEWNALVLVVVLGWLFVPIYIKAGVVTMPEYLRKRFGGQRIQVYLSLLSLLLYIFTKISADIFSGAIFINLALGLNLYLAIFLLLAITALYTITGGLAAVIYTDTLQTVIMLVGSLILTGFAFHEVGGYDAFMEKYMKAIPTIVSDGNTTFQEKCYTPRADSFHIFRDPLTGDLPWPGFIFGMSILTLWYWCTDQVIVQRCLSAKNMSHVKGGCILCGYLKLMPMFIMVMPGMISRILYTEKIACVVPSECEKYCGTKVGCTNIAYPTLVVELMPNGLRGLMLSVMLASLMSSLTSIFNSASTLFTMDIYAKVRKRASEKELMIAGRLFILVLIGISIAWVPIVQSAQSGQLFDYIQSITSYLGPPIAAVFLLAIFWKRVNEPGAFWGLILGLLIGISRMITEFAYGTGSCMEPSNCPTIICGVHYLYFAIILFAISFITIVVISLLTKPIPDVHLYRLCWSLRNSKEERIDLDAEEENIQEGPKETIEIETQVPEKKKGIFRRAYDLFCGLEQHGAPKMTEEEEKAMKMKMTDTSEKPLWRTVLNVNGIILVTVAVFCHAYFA
Description: (§1) An SGLT1 sequence (NM_000343) was reverse-transcripted from human small intestinal mRNA, then amplified, and then introduced into pCMV-tag5A from Stratagene Corporation. An SGLT2 sequence (NM_003041) was prepared from human nephric mRNA as with the above method, and then introduced into pcDNA3.1+hygro from Invitrogen Corporation. Each cloned sequence was confirmed to be identical with the reported sequence.
(§2) The human SGLT1 and human SGLT2 expression vectors were transfected into CHO-k1 cells by using Lipofectamine 2000 from Invitrogen Corporation. The SGLT expression cells were incubated in the presence of Geneticin (SGLT1) or Hygromycin B (SGLT2) at a 500 μg/mL concentration to select resistant strains, and specific activity of sugar uptake was obtained as an indicator by the following system.
(§3) Cells stably expressing human SGLT1 and human SGLT2 were used for the inhibition test of sodium-dependent glucose uptake.
(§4) The cells were incubated in a pretreatment buffer A (200 μL for SGLT1, and 2 mL for SGLT2) for 20 minutes. The pretreatment buffer was removed and an uptake buffer B (75 μL for SGLT1, and 200 μL for SGLT2) containing a test compound was added to conduct an uptake reaction at 37° C. for 30 minutes (SGLT1) or an hour (SGLT2). After the reaction, the cells were washed with a washing buffer C twice (200 μL for SGLT1, and 2 mL for SGLT2), and then dissolved in a 0.2 M solution of NaOH (75 μL for SGLT1, and 400 μL for SGLT2). After a liquid scintilater was added thereto and mixed sufficiently, radioactivity was measured with microBETA (SGLT1) or a liquid scintillation counter from Beckman Coulter, Inc (SGLT2). As a control group, an uptake buffer containing no test compound was prepared. In addition, as the basic uptake buffer, an uptake buffer B containing choline chloride instead of NaCl was prepared. • A pretreatment buffer A: 140 mM choline chloride, 2 mM KCl, 1 mM CaCl2, 1 mM MgCl2, 10 mM HEPES/5 mM Tris, pH 7.4. • An uptake buffer B: 1 mM of methyl α-D-glucopyranoside containing [^14C]methyl α-D-glucopyranoside, 140 mM NaCl, 2 mM KCl, 1 mM CaCl2, 1 mM MgCl2, 10 mM HEPES/5 mM Tris, pH 7.4. • A washing buffer C: 10 mM methyl α-D-glucopyranoside, 140 mM choline chloride, 2 mM KCl, 1 mM CaCl2, 1 mM MgCl2, 10 mM HEPES/5 mM Tris, pH 7.4.
(§5) In order to obtain IC50 values, test compounds having adequate 6 concentrations were used and the test compound concentrations (IC50 values) at which sugar uptake is inhibited by 50% in comparison with the amount of sugar uptake (100%) of the control group were calculated.
(§6) In addition, the sugar uptake inhibition rates at 100 nM concentration of the test compound in comparison with the control group are shown in Table 7.

human SGLT2 = target: T2, human SGLT2 (Homo sapiens, UniProt P31639); assay: Inhibition test of sodium-dependent sugar uptake in CHO-k1 cells stably expressing human SGLT2; type: cell-based; conditions: for SGLT2 % inhibition at 100 nM: sugar uptake inhibition rate at 100 nM test compound vs control group; for IC50: CHO-k1 cells expressing human SGLT2, [14C]methyl α-D-glucopyranoside uptake, 37° C., an hour
T2 construct: expressed in transfected cells; host or cells: CHO-k1
T2 sequence (P31639 1-672): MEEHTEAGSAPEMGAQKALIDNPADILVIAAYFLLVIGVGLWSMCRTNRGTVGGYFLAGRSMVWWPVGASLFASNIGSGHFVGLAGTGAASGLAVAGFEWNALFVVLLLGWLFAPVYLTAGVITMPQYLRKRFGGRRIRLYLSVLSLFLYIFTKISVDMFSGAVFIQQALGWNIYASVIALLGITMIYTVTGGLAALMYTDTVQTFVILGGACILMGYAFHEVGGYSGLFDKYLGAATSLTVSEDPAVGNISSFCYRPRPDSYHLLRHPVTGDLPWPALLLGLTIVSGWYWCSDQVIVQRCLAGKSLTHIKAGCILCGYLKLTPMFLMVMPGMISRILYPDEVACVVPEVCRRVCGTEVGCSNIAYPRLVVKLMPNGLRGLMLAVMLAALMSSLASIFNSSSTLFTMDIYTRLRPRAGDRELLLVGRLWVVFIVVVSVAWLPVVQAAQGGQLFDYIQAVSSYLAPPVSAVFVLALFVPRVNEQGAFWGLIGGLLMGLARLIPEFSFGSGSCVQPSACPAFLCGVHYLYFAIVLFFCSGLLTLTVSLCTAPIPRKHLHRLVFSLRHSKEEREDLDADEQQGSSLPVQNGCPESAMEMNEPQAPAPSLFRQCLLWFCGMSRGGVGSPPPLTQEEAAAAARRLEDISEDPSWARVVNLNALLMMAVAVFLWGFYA
Description: as §1, §2, §3, §4, §5, §6

SGLT1 % inhibition at 100 nM (human SGLT1) | SGLT2 % inhibition at 100 nM (human SGLT2) | IC50 (human SGLT1) | IC50 (human SGLT2) | SMILES
71% | 79% | – | – | Cc1cc(O)c(C2OC(CO)C(O)C(O)C2O)cc1Cc1ccc(CCNC(=O)NC2CC3CCC2C3)cc1 (mixture of isomers) [Compound 124]
90% | 90% | – | – | Cc1cc(O)c(C2OC(CO)C(O)C(O)C2O)cc1Cc1ccc(CCNC(=O)NC2CCN(Cc3ccccc3)C2)cc1 (mixture of isomers) [Compound 132]
71% | 79% | – | – | Cc1cc(O)c(C2OC(CO)C(O)C(O)C2O)cc1Cc1ccc(CCNC(=O)Nc2ccccc2C(O)c2ccccc2)cc1 (mixture of isomers) [Compound 137]
66% | 80% | – | – | Cc1cc(O)c(C2OC(CO)C(O)C(O)C2O)cc1Cc1ccc(CCNC(=O)N2CCC3CCCCC3C2)cc1 (mixture of isomers) [Compound 143]
– | – | 49 nM | 21 nM | O=C(NCCc1ccc(Cc2cc([C@@H]3O[C@H](CO)[C@@H](O)[C@H](O)[C@H]3O)c(O)cc2Cl)cc1)NC(CO)(CO)CO [Compound 14, (1S)-1,5-anhydro-1-[4-chloro-5-[4-[2-[[[2-hydroxy-1,1-bis(hydroxymethyl)ethyl]aminocarbonyl]amino]ethyl]benzyl]-2-hydroxyphenyl]-D-glucitol]
– | – | 79 nM | 25 nM | O=C(NCCc1ccc(Cc2cc([C@@H]3O[C@H](CO)[C@@H](O)[C@H](O)[C@H]3O)ccc2Cl)cc1)NC(CO)(CO)CO [Compound 17, (1S)-1,5-anhydro-1-[4-chloro-3-[4-[2-[[[2-hydroxy-1,1-bis(hydroxymethyl)ethyl]aminocarbonyl]amino]ethyl]benzyl]phenyl]-D-glucitol]
– | – | 302 nM | 101 nM | Cc1cc(O)c([C@@H]2O[C@H](CO)[C@@H](O)[C@H](O)[C@H]2O)cc1Cc1ccc(OCCNC(=O)NC(CO)(CO)CO)cc1 [Compound 19]
– | – | 75 nM | 34 nM | COC(=O)CNC(=O)NCCc1ccc(Cc2cc([C@@H]3O[C@H](CO)[C@@H](O)[C@H](O)[C@H]3O)c(O)cc2C)cc1 [Compound 21]
– | – | 37 nM | 12 nM | COC(=O)[C@H](Cc1ccccc1)NC(=O)NCCc1ccc(Cc2cc([C@@H]3O[C@H](CO)[C@@H](O)[C@H](O)[C@H]3O)c(O)cc2C)cc1 [Compound 22]
– | – | 19 nM | 19 nM | Cc1cc(O)c([C@@H]2O[C@H](CO)[C@@H](O)[C@H](O)[C@H]2O)cc1Cc1ccc(CCNC(=O)NC2(CO)CCCC2)cc1 [Compound 23]
– | – | 37 nM | 25 nM | Cc1cc(O)c([C@@H]2O[C@H](CO)[C@@H](O)[C@H](O)[C@H]2O)cc1Cc1ccc(CCNC(=O)N[C@@H](CC(C)C)C(N)=O)cc1 [Compound 24]
– | – | 64 nM | 20 nM | CCCN(CC1CC1)C(=O)NCCc1ccc(Cc2cc([C@@H]3O[C@H](CO)[C@@H](O)[C@H](O)[C@H]3O)c(O)cc2C)cc1 [Compound 25]
– | – | 52 nM | 15 nM | Cc1cc(O)c([C@@H]2O[C@H](CO)[C@@H](O)[C@H](O)[C@H]2O)cc1Cc1ccc(CCNC(=O)NCc2cccs2)cc1 [Compound 26]
– | – | 54 nM | 15 nM | Cc1cc(O)c([C@@H]2O[C@H](CO)[C@@H](O)[C@H](O)[C@H]2O)cc1Cc1ccc(CCNC(=O)NCc2cc(Cl)cc(Cl)c2)cc1 [Compound 27]
– | – | 64 nM | 18 nM | Cc1cc(O)c([C@@H]2O[C@H](CO)[C@@H](O)[C@H](O)[C@H]2O)cc1Cc1ccc(CCNC(=O)NCC2CCCCC2)cc1 [Compound 28]
– | – | 75 nM | 17 nM | CSCCNC(=O)NCCc1ccc(Cc2cc([C@@H]3O[C@H](CO)[C@@H](O)[C@H](O)[C@H]3O)c(O)cc2C)cc1 [Compound 29]
– | – | 111 nM | 13 nM | Cc1cc(O)c([C@@H]2O[C@H](CO)[C@@H](O)[C@H](O)[C@H]2O)cc1Cc1ccc(CCNC(=O)NCCN2CCCC2)cc1 [Compound 30]
– | – | 148 nM | 39 nM | COCCNC(=O)NCCc1ccc(Cc2cc([C@@H]3O[C@H](CO)[C@@H](O)[C@H](O)[C@H]3O)c(O)cc2C)cc1 [Compound 31]
– | – | 245 nM | 44 nM | COC(=O)CCNC(=O)NCCc1ccc(Cc2cc([C@@H]3O[C@H](CO)[C@@H](O)[C@H](O)[C@H]3O)c(O)cc2C)cc1 [Compound 32]
– | – | 12 nM | 11 nM | Cc1cc(O)c([C@@H]2O[C@H](CO)[C@@H](O)[C@H](O)[C@H]2O)cc1Cc1ccc(CCNC(=O)NC2CCN(Cc3ccccc3)CC2)cc1 [Compound 33]
– | – | 83 nM | 34 nM | Cc1cc(O)c([C@@H]2O[C@H](CO)[C@@H](O)[C@H](O)[C@H]2O)cc1Cc1ccc(CCNC(=O)NC2CCCc3ccccc32)cc1 (stereo partly shown) [Compound 35]
– | – | 94 nM | 34 nM | Cc1cc(O)c([C@@H]2O[C@H](CO)[C@@H](O)[C@H](O)[C@H]2O)cc1Cc1ccc(CCNC(=O)N2CCC(C)CC2)cc1 [Compound 36]
89% | 83% | – | – | CCC(CO)(CO)NC(=O)NCCc1ccc(Cc2cc([C@@H]3O[C@H](CO)[C@@H](O)[C@H](O)[C@H]3O)c(O)cc2C)cc1 [Compound 38]
80% | 83% | – | – | Cc1cc(O)c([C@@H]2O[C@H](CO)[C@@H](O)[C@H](O)[C@H]2O)cc1Cc1ccc(CCNC(=O)NC(C)(C)C)cc1 [Compound 39]
79% | 89% | – | – | Cc1cc(O)c([C@@H]2O[C@H](CO)[C@@H](O)[C@H](O)[C@H]2O)cc1Cc1ccc(CCNC(=O)N[C@@H](Cc2ccccc2)C(N)=O)cc1 [Compound 40]

SMILES | SGLT1 % inhibition at 100 nM (human SGLT1) | SGLT2 % inhibition at 100 nM (human SGLT2) | IC50 (human SGLT1) | IC50 (human SGLT2)
Cc1cc(O)c([C@@H]2O[C@H](CO)[C@@H](O)[C@H](O)[C@H]2O)cc1Cc1ccc(CCNC(=O)NC2CN3CCC2CC3)cc1 (stereo partly shown) [Compound 34] | – | – | 49 nM | 10 nM

Reference: patent US7973012B2, “C-phenyl glycitol compound” (Taisho Pharmaceutical Co., Ltd, priority 2006, dated 2011)
